According to US20210276960A1, “INHIBITORS OF TISSUE TRANSGLUTAMINASE 2 (TG2) AND USES THEREOF” (Northwestern University, priority 2020, published 2021):

Legend:
[1] = tested on: FAK and ERK phosphorylation in OVCAR5 cells; assay: Western blotting, time course after attachment to FN; format: cell-based, human; settings: 5 μM
Procedure: FIG. 5. Effects of SMIs targeting the TG2/FN complex on “outside-in” signaling and adhesion to mesothelial surfaces. A, Western blot analysis of total and phosphorylated FAK and ERK was performed using cell lysates extracted from OVCAR cells plated on FN for 15 to 45 minutes in the presence of TG53 (left) or MT-4 (right) at 5 μM concentration, as compared to DMSO. GAPDH was used as a control. OVCAR5 cells had been pretreated with the inhibitors for 72 hours. Densitometry analysis used the Quantity One software and results were normalized to GAPDH loading controls. DMSO 0 min time point was considered as 1 for comparative analysis. Values are shown for each band. B, A modified cell adhesion assay measured the effects of TG53, MT-4, MT-5, and MT-6 (25 μM) on SKOV3 cells' adhesion onto semi-confluent LP9 monolayers. C, Dose-dependent effects of TG53, MT-4, MT-5, and MT-6 on OVCAR433 cells adhesion onto semi-confluent LP9 monolayers. D-E, Wound healing assay measures migration of SKOV3 and OVCAR5 cells in the presence of MT-4, MT-5, MT-6 at a concentration of 8 μM (black bars) or vehicle (open bar). Migration rate was determined over a period of 24 hours by measuring the average distance between the wound borders at the beginning and at the end of the assay interval (n=4). F-G, SKOV3-GFP OC cells were injected ip in NSG mice in the presence of either MT-4 ([…]) (F) or MT-6 ([…]) (G) and allowed to attach to the peritoneal wall. After 2 hours, the cell suspension was recovered from the peritoneal cavity through peritoneal washings and the non-attached OC cells recovered were counted. *p<0.05, **p<0.01, ***p<0.001, ****p<0.0001.
(§1) OVCAR5 cells were seeded(1×10^5 cells/well) in 6-well plates (Denville Scientific) and treated for 72 hrs with 1 μM MT-4, TG53 or vehicle control (DMSO). After drug exposure, cells were detached using Cellstripper (cellgro, #25-056-CI, CORNING, Manassas, Va., USA), centrifuged, and counted. Before seeding for either confocal microscopy or western blotting, they were incubated in serum free media in the presence of drugs for 15-90 minutes, as stated in the figure legends.
Cells pre-treated as stated above were seeded in 60 mm dishes coated with 5 μg/mL FN and serially harvested at 15, 30, and 45 minutes, − or left unattached (0 min), in cold RIPA buffer. Lysates were separated by SDS-PAGE, transferred onto PVDF membranes (Bio-Rad), incubated with primary and secondary antibodies and developed by using SuperSignal™ West Femto Maximum Sensitivity Substrate and Pierce™ ECL Western Blotting Substrate, respectively (Thermo Scientific). […] Densitometry analysis was performed using Quantity One software (Bio-Rad) and results were normalized to GAPDH loading controls. […]

[2] = tested on: SKOV3 cells adhesion to FN; assay: Solid phase adhesion assay to FN, SKOV3; format: cell-based
Procedure: Cells labeled with calcein AM (Life Technologies, #L3224) were seeded at a density of 4×10^4 cells in 96-well plates pre-coated with FN (5 μg/mL, Sigma, #F1141), and blocked using 1% BSA (Sigma, #A9647) in PBS in the presence of selected compounds diluted at the specified concentrations, in serum free media. After 45 minutes, unattached cells were washed using PBS containing 1 mM MgCl2(Sigma, #M8266) and adherent cells were quantified in a SpectraMaxGeminiXS fluorescence plate reader (Molecular Devices, Palo Alto, Calif.) at 530 nm wavelength. Experiments were performed inquadruplicate and repeated at least twice.

[3] = tested on: OVCAR5 cells attachment onto FN; assay: Early attachment assay with IF staining; format: cell-based, human; settings: 1 μM, 72 hours pre-treatment, 30 minutes after seeding
Procedure: as §1
In order to analyze cell adhesion complex proteins expression and localization upon early attachment, cells were treated as stated above and then seeded onto FN-coated cover slips for 30 minutes at 37° C. Samples were fixed in 4% p-formaldehyde (PFA) and permeabilized with 0.2% Triton-X-100. After blocking, focal contacts were identified by using anti-vinculin antibodies, activation of integrins signaling pathway was assessed by antibodies against phosphorylated focal adhesion kinase (FAK), while actin cytoskeleton was labeled by Alexa Fluor 488-conjugated phalloidin (Life Technologies, #A12379). Nuclei were stained with 1:10000 Hoechst (Thermo Scientific) and specimens were mounted in Prolong Gold anti-fadereagent (Life Technologies). Cells were analyzed by laser scanning using a Nikon A1RGaAsPConfocal Laser Microscope. For co-localization analyses, SKOV3 cells were treated with DMSO (control) or TG53 (1 μM) and plated on FN-coated chamber slides (BD Biosciences) for 72 hrs. IF analysis was performed as previously described (Condello et al., 2013b). Briefly, after fixation, permeabilization and blocking, cells were incubated overnight with p-FAK (Y576/577), c-Src, p-Src (Y416), integrin β1 or TG2 primary antibodies in blocking buffer at 4° C., followed by 1 h incubation with Cy5-conjugated anti-mouse secondary antibody (1:500; Zymed Laboratories; South San Francisco, Calif., USA) or Alexa Fluor 488 anti-rabbit secondary antibody (1:1000; Molecular Probes, Eugene, Oreg., USA) at RT. Isotype-specific IgG was used as a negative control. Nuclei were visualized by 4′,6-diamidino-2-phenylindole (DAPI) staining (Vectashield; Vector Laboratories, Burlingame, Calif., USA). Analysis was done using an LSM 510 META confocal multiphoton microscope system (Carl Zeiss Inc., Thomwood, N.Y., USA) under UV excitation at 630 nm (for Cy5), 488 nm (for Alexa Fluor 488), and 340 nm (for DAPI) and using a 60× magnification objective. Colocalization percentage was calculated by normalizing the pixels corresponding to Cy5 or Alexa Fluor 488 emissions to DAPI pixels in the same cell, followed by merging area of green with area of red and determination of average of overlap areas. A Student' t test was calculated to determine statistical significance of differences between drug treated and DMSO control treated cells.

Row | SMILES | ERK phosphorylation, time course ([1]; 15 to 45 minutes on FN) | FAK phosphorylation, time course ([1]; 15 to 45 minutes on FN) | cell adhesion to FN, dose dependence ([2]; 2 μM-25 μM) | OC cells' adhesion to FN ([2]; FN 5 μg/mL, FIG. 2E) | FAK phosphorylation (IF) [3] | number of focal contacts with FN-coated substrate (vinculin) [3] | time of peak FAK activation post cell seeding on FN ([1]; control 15 minutes) [min] | cell adhesion to FN ([2]; 25 μM, FIG. 13A) | inhibition of cell adhesion to FN, TG2 expressing vs AS-TG2 cells ([2]; 25 μM, SKOV3pcDNA3.1 vs SKOV3-ASTG2) | cell adhesion to FN, dose dependence and specificity ([2]; 1-25 μM, TG53 compared with TG288)
1 | Cc1cc(N(C)C)nc(Nc2ccc(NC(=O)Cc3ccccc3)cc2)n1 [MT-4] | inhibited and delayed | more evident | dose-dependent inhibitory effect | potently blocked | decreased | decreased |  |  |  | 
2 | COc1ccc(Cl)cc1C(=O)Nc1ccc(Nc2nc(C)cc(N(C)C)n2)cc1 [TG53] |  | modestly delayed |  |  | decreased | decreased | 30 | inhibited cell adhesion | more pronounced in TG2 expressing SKOV3pcDNA3.1 cells | dose-dependent
